One test concerns the target human BACE-1 (Homo sapiens (Human), UniProt P56817). Description: Test 1: Inhibition of Human BACE-1. In kind it is biochemical. Conditions: recombinant BACE-1, pH 4.5, fluorescence-quenched substrate. How it is done: Test 1: Inhibition of Human BACE-1
(§1) Recombinant BACE-1 (extracellular domain, expressed in baculovirus and purified using standard methods) at 0.1 to 1 nM concentrations is incubated with the test compound at various concentrations for 1 hour at room temperature in 100 mM acetate buffer, pH 4.5, containing 0.1% CHAPS. Activity was measured using a final concentration of 3 μM of the fluorescence-quenched substrate Q-C(HSO3)-Ile-Asp-Leu-Ala-Val-Leu-Asp-HN—CH2—CH2-Mca, where Q=2-nitro-5-amino benzoic acid and Mca=7-methoxy-4-coumarinyl acetic acid. […] Fluorescence increase was followed for 15 min, in 1 minute's intervals. The fluorescence/time slopes were calculated from duplicate wells and from wells without inhibitor and the IC50 values were calculated using a logistic 4-parameter model.

The target in the next test is human BACE-2 (Homo sapiens (Human), UniProt Q9Y5Z0). Description: Test 2: Inhibition of Human BACE-2. In kind it is biochemical. The conditions noted are these: recombinant BACE-2, pH 4.5, fluorescence-quenched substrate. Here is the method:
Test 2: Inhibition of Human BACE-2
as §1, with “BACE-2” for “BACE-1”

Test [1] has as its system amyloid peptide 1-40 release. Description: Test 4: Inhibition of Cellular Release of Amyloid Peptide 1-40. Format: cell-based. The conditions noted are these: Cricetulus griseus; Chinese hamster ovary cells transfected with the human gene for amyloid precursor protein, 24 hours; read-out: Amyloid-β1-40 release IC50. How it is done: Chinese hamster ovary cells are transfected with the human gene for amyloid precursor protein. The cells are plated at a density of 8000 cells/well into 96-well microtiter plates and cultivated for 24 hours in DMEM cell culture medium containing 10% FCS. The test compound is added to the cells at various concentrations, and the cells are cultivated for 24 hours in the presence of the test compound. […] The potency of the compound is calculated from the percentage of inhibition of amyloid peptide release as a function of the test compound concentration.

This passage reports IC50 results from patent US9284284B2, “Oxazine derivatives and their use in the treatment of disease” (NOVARTIS AG, priority 2011, dated 2016).

Broadly, the IC50 is the concentration needed to halve the response being measured.

Structures are written as SMILES.

Sequence of human BACE-1 (P56817 46-457): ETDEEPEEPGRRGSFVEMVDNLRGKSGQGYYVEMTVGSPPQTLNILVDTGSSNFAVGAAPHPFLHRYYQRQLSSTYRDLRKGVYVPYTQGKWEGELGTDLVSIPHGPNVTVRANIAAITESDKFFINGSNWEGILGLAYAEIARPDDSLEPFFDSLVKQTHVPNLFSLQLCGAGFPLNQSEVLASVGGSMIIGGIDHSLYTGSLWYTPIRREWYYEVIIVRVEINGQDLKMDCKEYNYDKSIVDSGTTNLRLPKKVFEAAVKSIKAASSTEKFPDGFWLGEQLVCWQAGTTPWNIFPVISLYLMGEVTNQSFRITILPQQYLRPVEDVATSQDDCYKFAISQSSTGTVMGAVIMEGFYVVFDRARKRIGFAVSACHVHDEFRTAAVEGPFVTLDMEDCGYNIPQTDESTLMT
Sequence of human BACE-2 (Q9Y5Z0 63-473): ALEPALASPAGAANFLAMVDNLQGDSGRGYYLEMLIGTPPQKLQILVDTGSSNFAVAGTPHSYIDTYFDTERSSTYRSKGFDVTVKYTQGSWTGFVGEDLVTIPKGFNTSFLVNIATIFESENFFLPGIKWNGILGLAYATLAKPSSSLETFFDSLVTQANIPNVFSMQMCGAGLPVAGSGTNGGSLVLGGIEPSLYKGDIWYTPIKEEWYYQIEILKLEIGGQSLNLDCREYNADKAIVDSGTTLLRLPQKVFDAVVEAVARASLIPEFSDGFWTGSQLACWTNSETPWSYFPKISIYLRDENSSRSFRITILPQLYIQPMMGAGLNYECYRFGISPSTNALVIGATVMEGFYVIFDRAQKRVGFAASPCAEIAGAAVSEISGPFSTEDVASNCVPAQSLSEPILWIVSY

Turning to `CC1(c2cccc(Nc3nsc4cc(Br)ccc34)c2)COCC(N)=N1` (centres unmarked) [Example 1, [3-(5-Amino-3-methyl-3,6-dihydro-2H-[1,4]oxazin-3-yl)-phenyl]-(6-bromo-benzo[d]isothiazol-3-yl)-amine], the IC50 was 1500 nM on human BACE-1, 1900 nM at human BACE-2 and 2900 nM in test [1].

As to `Cn1nc(Nc2cccc(C3(C)COCC(N)=N3)c2)c2ccc(Br)cc21` (centres unmarked) [Example 2, [3-(5-Amino-3-methyl-3,6-dihydro-2H-[1,4]oxazin-3-yl)-phenyl]-(6-bromo-1-methyl-1H-indazol-3-yl)-amine], the IC50 is 5200 nM on human BACE-1, more than 10000 nM at human BACE-2 and 3500 nM in test [1].

`CC1(c2cccc(Nc3noc4ccccc34)c2)COCC(N)=N1` (centres unmarked) [Example 3, [3-(5-Amino-3-methyl-3,6-dihydro-2H-[1,4]oxazin-3-yl)-phenyl]-benzo[d]isoxazol-3-yl-amine]: the IC50 at human BACE-1 came to 8900 nM; on human BACE-2 it was 3200 nM; in test [1] it was 7100 nM.

As to `CC1(c2cc(NCc3ccco3)ccc2F)COCC(N)=N1` (centres unmarked) [Example 4, 5-{2-Fluoro-5-[(furan-2-ylmethyl)-amino]-phenyl}-5-methyl-5,6-dihydro-2H-[1,4]oxazin-3-ylamine], the IC50 at human BACE-1 was 1900 nM; at human BACE-2 it was 2400 nM; in test [1] it was 380 nM.

Turning to `NC1=NC(CF)(c2cc(NCc3ccc(Br)cc3Cl)ccc2F)COC1` (centres unmarked) [Example 5, 5-[5-(4-Bromo-2-chloro-benzylamino)-2-fluoro-phenyl]-5-fluoromethyl-5,6-dihydro-2H-[1,4]oxazin-3-ylamine], the IC50 at human BACE-1 was found to be 3600 nM; at human BACE-2 it was 5300 nM; in test [1] it was 1400 nM.

Turning to `NC1=NC(c2cc(NCc3cc(Br)co3)ccc2F)(C(F)F)COC1` (centres unmarked) [Example 6, 5-{5-[(4-Bromo-furan-2-ylmethyl)-amino]-2-fluoro-phenyl}-5-difluoromethyl-5,6-dihydro-2H-[1,4]oxazin-3-ylamine], the IC50 worked out at 6200 nM on human BACE-1, 8300 nM at human BACE-2 and 740 nM in test [1].

Turning to `NC1=N[C@@](c2cc(Nc3ncnc4cc(Cl)cnc34)ccc2F)(C(F)F)COC1` [Example 7], the figures for the IC50 (at human BACE-1; at human BACE-2; in test [1]) were 36 nM, 32 nM and 22 nM, respectively.

Take `NC1=N[C@@](c2cc(Nc3nccc4cc(Br)cnc34)ccc2F)(C(F)F)COC1` [Example 8, [3-((R)-5-Amino-3-difluoromethyl-3,6-dihydro-2H-[1,4]oxazin-3-yl)-4-fluoro-phenyl]-(3-bromo-[1,7]naphthyridin-8-yl)-amine]: the IC50 turned out to be 21 nM at human BACE-1, 11 nM on human BACE-2 and 33 nM in test [1].

On to `N#Cc1cnc2c(Nc3ccc(F)c([C@]4(C(F)F)COCC(N)=N4)c3)nccc2c1` [Example 9, 8-[3-((R)-5-Amino-3-difluoromethyl-3,6-dihydro-2H-[1,4]oxazin-3-yl)-4-fluoro-phenylamino]-[1,7]naphthyridine-3-carbonitrile], for which the IC50 on human BACE-1 worked out at 18 nM; on human BACE-2, 30 nM; in test [1], 5 nM.

Take `COCCOc1cnc2c(Nc3ccc(F)c([C@]4(C(F)F)COCC(N)=N4)c3)nccc2c1` [Example 10, [3-((R)-5-Amino-3-difluoromethyl-3,6-dihydro-2H-[1,4]oxazin-3-yl)-4-fluoro-phenyl]-[3-(2-methoxy-ethoxy)-[1,7]naphthyridin-8-yl]-amine]: the IC50 is 600 nM on human BACE-1, 8200 nM on human BACE-2 and 24 nM in test [1].

With `NC1=N[C@@](c2cc(Nc3nccc4cc(OCCCl)cnc34)ccc2F)(C(F)F)COC1` [Example 11], the IC50 turned out to be 1900 nM at human BACE-1, 5600 nM at human BACE-2 and 250 nM in test [1].

Take `COc1c(N)ncnc1Nc1ccc(F)c([C@]2(C(F)F)COCC(N)=N2)c1` [N-[3-((R)-5-amino-3-difluoromethyl-3,6-dihydro-2H-[1,4]oxazin-3-yl)-4-fluoro-phenyl]-5-methoxy-pyrimidine-4,6-diamine]: the IC50 at human BACE-1 and at human BACE-2 was more than 10000 nM throughout.
